Columns and labels:
[1] = tested on: AMPH-sensitized rats; experiment: Pre-pulse inhibition; format: in vivo, rat; conditions: HAL 0.1 mg/kg/day i.c.v. mini pump, day 7; versus AMPH-VEH
[2] = tested on: psychotic-like rats; experiment: Pilot study: continuous HAL into the lateral ventricle; format: in vivo, rat; conditions: data not shown
[3] = tested on: striatal dopamine D2 receptors; conditions: 0.5 mg/kg/day subcutaneous delivery; ref Kapur et al., 2003; cited from earlier work

O=C(CCCN1CCC(O)(c2ccc(Cl)cc2)CC1)c1ccc(F)cc1 [HAL, Haloperidol]
PPI of the acoustic startle response [1]: clearly improved PPI | alleviation of psychotic-like symptoms ([2]; 0.1 mg/kg/day continuous i.c.v. versus 0.01 or 0.03 mg/kg/day): significantly more effective | extrapyramidal side effects ([2]; 0.1 mg/kg/day continuous i.c.v.): without causing extrapyramidal side effects | striatal dopamine D2 receptor occupancy [3]: 73%
